The source of these data is patent US8632788B2, “Parenteral formulation for epothilone analogs” (Bristol-Myers Squibb Company, priority 2001, dated 2014).

Data set [1] is described as follows: Degradation of the drug during dissolution in tertiary butanol/water, lyophilization and secondary drying. It is filed as physicochemical. The conditions noted are these: dissolution at 5° C. in tertiary butanol/water, lyophilization at −16° C. 48 hours, drying at 15° C. under high vacuum 48 hours, light protected. On the procedure: [1S-[1R*,3R*(E),7R*,10S*,11R*,12R*,16S*]]-[…]-8,8,10,12,16-pentamethyl-3-[1-methyl-2-(2-methyl-4-thiazolyl)ethenyl]-4-aza-17-oxabicyclo[14.1.0]heptadecane-5,9-dione, 9.86 g, was wetted/partially dissolved with 600 mL of a 9:1 mixture of tertiary butanol and Water for Injection USP which had been pre-cooled to 5° C. Once the drug powder had become completely wetted, dissolution was completed by the addition of 600 mL of a 1:9 mixture of tertiary butanol and Water for Injection and 766 mL of a 1:1 mixture of tertiary butanol and Water for Injection which likewise had been pre-cooled to 5° C. thereby making the final solution a 1:1 mixture. The dissolution was carried out under protection from light.
The solution formed above was promptly lyophilized in a Virtis INOTOP lyophilizer at −16° C. under light protectant conditions over a period of 48 hours. The resultant lyophilized product (lyophile) was then further dried at 15° C. under high vacuum for 48 hours. […] The lyophile was packaged under sterile conditions into 30 mL vials, each containing 10 mg of drug and standard excess to allow for vial/needle/syringe loss.

Data set [2] in a line: Physicochemical properties of the epothilone analogs relevant to compounding (solubility, stability in aqueous media, pH, light, wetting). An excerpt:
Any one or two of these characteristics might be compensated for in compounding a pharmaceutical formulation for intravenous administration, but the combination of all of them presents a formidable challenge to the pharmaceutical compounding chemist.

Data set [3] in a line: Cytotoxic classification of the epothilone analogs.

With `C/C(=C\c1csc(C)n1)C1C[C@@H]2O[C@]2(C)CCC[C@H](C)[C@H](O)[C@@H](C)C(=O)C(C)(C)[C@@H](O)CC(=O)N1` (relative stereo) [formula II, [1S-[1R*,3R*(E),7R*,10S*,11R*,12R*,16S*]]-7,11-Dihydroxy-8,8,10,12,16-pentamethyl-3-[1-methyl-2-(2-methyl-4-thiazolyl)ethenyl]-4-aza-7-oxabicyclo[14.1.0]heptadecane-5,9-dione], the “degradation of the drug” value in data set [1] is “No detectable degradation”. Besides, in data set [2], the light sensitivity result is “light sensitive” and the wetting characteristics result is listed as “exceptionally poor”. Moreover, in data set [2] (aqueous media), the “solubility in aqueous media” value is given as “very low solubility”. In addition, in data set [2] (in contact with aqueous media), the “degradation in contact with aqueous media” value is recorded as “rapidly degrade”. The “sensitivity to low pH” value in data set [2] (in solution) is “sensitive to low pH”. Moreover, in data set [3], the cytotoxic class result is “Class D”.
